Results published in patent publication US7041702B1, “Pharmaceutically active compounds and methods of use” (Scion Pharmaceuticals, Inc., priority 1997, dated 2006).

Tests used:
[1] = test system: mouse; settings: recognized model for evaluation of neuroprotective drugs; cited from earlier work
[2] = test system: in vivo models of stroke; settings: variety of in vivo models of stroke; cited from earlier work
[3] = in vivo; cited from earlier work
[4] = test system: DBA/2 mice; assay: In vivo anticonvulsant activity in the DBA/2 mouse model (mouse audiogenic assay); settings: vs vehicle controls, HCl salt form
Method: As discussed above, preferred compounds of the invention in a standard anticonvulsant in vivo audiogenic test, such as the audiogenic mouse assay of Example 11 which follows, where DBA/2 mice about 20–23 days old are injected intraperitoneally with a test compound 30 minutes prior to being placed in a bell jar with exposure to auditory stimulus of 12 KHz sine wave at 110–120 db. References herein in vivo “audiogenic assay” are intended to refer to that protocol. […] As discussed above, activity in the audiogenic assay has been recognized as indicative that a test compound has neuroprotective properties. See, e.g., M. Tricklebank et al., European Journal of Pharmacology, supra; T. Seyfried, Federation Proceedings, supra.
Compounds were tested for their effectiveness in preventing seizures in DBA/2 mice which have a unique sensitivity to auditory stimulation. Exposure to loud high-frequency sounds can trigger seizure activity in these animals. This sensitivity develops from postnatal day 12 and peaks around day 21 and slowly diminishes as the animals mature. The unusual response to auditory stimulation in this strain of mouse is believed to be due to a combination of early myelination (causing an unusually low excitatory threshold) and delayed development of inhibitory mechanisms.
Mice were injected intraperitoneally with the compound specified in Table I below or with vehicle control, 30 minutes prior to being placed in a bell jar and turning on the auditory stimulus (12 KHz sine wave at 110–120 db). Administered doses are specified in Table I as milligram of compound per kilogram bodyweight of mouse. The auditory stimulus was left on for 60 seconds and mice reactions were timed and recorded. Percentage inhibition was determined with reference to vehicle controls. All compounds were tested in HCl salt form.

[5] = dose 20 mg/kg intraperitoneally 30 minutes prior to auditory stimulus (12 KHz, 110–120 db)

Compound | melting point | Audiogenic Response % Inhib. [4, 5] | other results
Cl.N/C(=N\C(=O)c1cccs1)NCCc1ccccc1 | 198 to 200 °C | – | –
CCCCOc1ccc(C(=O)/N=C(\N)NCCc2c[nH]c3ccccc23)cc1.Cl | 158 to 162 °C | – | –
C[C@]12N[C@H](Cc3ccccc31)c1ccccc12 [MK-801] | – | – | activity in mouse audiogenic tests [1]: good activity; results in in vivo models of stroke [2]: good results; toxicity [3]: has shown toxicity
CCCCOc1ccc(NC(=N)NCCCCc2ccccc2)cc1 [N-(4-butoxyphenyl)-N′-(4-phenylbutyl)guanidine] | – | 97% | –
CCOc1ccc(NC(=N)NCCCCc2ccccc2)cc1 [N-(4-ethoxyphenyl)-N′-(4-phenylbutyl)guanidine] | – | 60% | –
COc1ccc(C(=O)/N=C(\N)NCCCCc2ccccc2)cc1.Cl [N-(4-methoxybenzoyl)-N′-(4-phenylbutyl)guanidine, hydrochloride] | 172 to 174 °C | 42% | –
COc1ccc(NC(=N)Nc2ccc(C(C)C)cc2)cc1 [N-(4-methoxyphenyl)-N′-(4-isopropylphenyl)guanidine] | – | 56% | –
Cc1ccc(C(=O)/N=C(\N)Nc2ccc(C(C)C)cc2)cc1.Cl [N-(4-methylbenzoyl)-N′-(4-isopropylphenyl)guanidine, hydrochloride] | – | 30% | –
Cc1ccc(C(=O)/N=C(\N)NCCCCc2ccccc2)cc1.Cl [N-(4-methylbenzoyl)-N′-(4-phenylbutyl)guanidine, hydrochloride] | – | 75% | Audiogenic Response % Inhib. ([4]; dose 10 mg/kg intraperitoneally 30 minutes prior to auditory stimulus (12 KHz, 110–120 db)): 16%
